ChEMBL document CHEMBL4665806, “Structure-based optimisation of orally active & reversible MetAP-2 inhibitors maintaining a tight 'molecular budget'” (Bioorg Med Chem Lett, 2020)
Converted amounts (≈) assume the structure as drawn. The source made the active and inactive calls. The calls are words filed in the database; no cut-off is given here.

Experiments:
[1] = Intrinsic clearance in rat; format: ADME
[2] = Chromatographic hydrophobicity index, log D of the compound at pH 7.4; format: physicochemical; details: buffer
[3] = Intrinsic clearance in human; format: ADME
Mus musculus [4] = experiment: Antiinflammatory activity in antigen KLH-TNP- treated mouse model of B-cell adaptive immunity assessed as inhibition of secondary response at 10 mg/kg, po administered twice daily from day 21 to day 31 relative to control; format: functional; parameters: scale not given: the % may be the effect or the level left; details: time 10 day
Mus musculus [5] = experiment: Antiinflammatory activity in anti-KLH treated mouse model of B-cell adaptive immunity assessed as inhibition of secondary response at […] mg/kg, po administered twice daily from day 21 to day 31 relative to control; format: functional, organism-based; details: dose 3.0 mg/kg, time 10.0 day
[6] = Half life in po dosed mouse; format: ADME, organism-based; details: in vivo
[7] = Oral bioavailability in mouse at 10 mg/kg; format: ADME, organism-based; details: in vivo
[8] = target: Methionine aminopeptidase 2 (Mus musculus, UniProt O08663); experiment: Inhibition of MetAP2 in mouse B cells assessed as reduction in IgG secretion; format: cell-based, B-cell
Mus musculus [9] = experiment: Antiinflammatory activity in antigen KLH-TNP- treated po dosed mouse model of B-cell adaptive immunity assessed as inhibition of secondary response administered twice daily from day 21 to day 31; format: functional, organism-based; details: dose mg/kg 3-30, time 10.0 day
[10] = Clearance in po dosed mouse; format: ADME, organism-based; details: in vivo
[11] = Volume of distribution at steady state in po dosed mouse; format: ADME, organism-based; details: in vivo
[12] = Solubility of the compound; format: physicochemical
Mus musculus [13] = experiment: Antiinflammatory activity in antigen KLH-TNP- treated mouse model of B-cell adaptive immunity assessed as inhibition of secondary response at 3 mg/kg, po administered twice daily from day 21 to day 31 relative to control; format: functional; parameters: scale not given: the % may be the effect or the level left; details: time 10 day
Mus musculus [14] = experiment: Antiinflammatory activity in antigen KLH-TNP- treated mouse model of B-cell adaptive immunity assessed as inhibition of secondary response at 30 mg/kg, po administered twice daily from day 21 to day 31 relative to control; format: functional; parameters: scale not given: the % may be the effect or the level left; details: dose 3 mg/kg; time 10 day

Chain of Methionine aminopeptidase 2 (O08663 whole entry): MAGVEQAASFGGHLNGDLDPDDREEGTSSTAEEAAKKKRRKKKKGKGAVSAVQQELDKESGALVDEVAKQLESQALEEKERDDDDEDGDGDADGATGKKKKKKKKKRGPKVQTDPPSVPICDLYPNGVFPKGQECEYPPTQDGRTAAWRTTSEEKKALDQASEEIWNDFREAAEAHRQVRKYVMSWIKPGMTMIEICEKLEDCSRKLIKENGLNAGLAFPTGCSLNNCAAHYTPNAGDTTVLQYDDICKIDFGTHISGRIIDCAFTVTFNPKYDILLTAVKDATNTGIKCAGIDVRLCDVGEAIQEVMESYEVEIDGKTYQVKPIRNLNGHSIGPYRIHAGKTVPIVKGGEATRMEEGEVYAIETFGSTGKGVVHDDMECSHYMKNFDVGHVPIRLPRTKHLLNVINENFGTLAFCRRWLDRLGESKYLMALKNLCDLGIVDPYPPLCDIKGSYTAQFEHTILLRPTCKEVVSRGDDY

Compound | CLint scaled [1] | chromatographic logD [2] | CLint scaled [3] | Activity (Mus musculus [4]) | Activity (Mus musculus [5]) | half-life [6] | bioavailability [7] | IC50 [8] | Activity (Mus musculus [9]) | CL/F [10] | Vdss [11] | solubility [12] | Activity (Mus musculus [13]) | Activity (Mus musculus [14])
CC(C)Oc1cc(N2CCNCC2)ccc1-c1c(C(N)=O)[nH]c2cc(F)c(Cl)cc12 | < 1 mL/min/kg | 3.1 | < 1 mL/min/kg |  |  |  |  |  |  |  |  |  |  | 
CC(C)Oc1cc(N2CCNCC2)ccc1-c1c(C(N)=O)[nH]c2cc(F)c(F)cc12 | < 1 mL/min/kg | 2.8 | < 1 mL/min/kg | 39% | Active | 4.5 h | 89% | 39.8 nM | Dose-dependent effect | 45 mL/min/kg | 7.7 L/kg | 629 µg/mL (≈ 1520 µM) | 15% | 89%
